Reference: ChEMBL document CHEMBL3860032, “Identification of noncovalent proteasome inhibitors with high selectivity for chymotrypsin-like activity by a multistep structure-based virtual screening” (Eur J Med Chem, 2016)
Active and inactive are the calls of the source. The rule behind the calls is not given here. Non-standard residues stand in square brackets, D forms with d. Residues, ends and D or L forms follow the SMILES beside them. ξ: configuration not given here. *: point of attachment. ξY = NC(Cc1ccc(O)cc1)C(=O)O; Nva = CCC[CH](N)C(=O)O; Cbz = O=C(OCc1ccccc1)*; ξI = CCC(C)C(N)C(=O)O; ξL = CC(C)CC(N)C(=O)O; ξT = CC(O)C(N)C(=O)O; NHNH2 = NN*

How the values were obtained:
[1] = Cytotoxicity against human MM1R cells assessed as growth inhibition after 24 hrs by MTT assay; assay type: functional, cell-based; conditions: MM.1R
[2] = Cytotoxicity against human MM1R cells assessed as residual vitality at 100 uM after 24 hrs by MTT assay relative to control; assay type: functional
[3] = target: T1, Proteasome Macropain subunit MB1 (Homo sapiens, UniProt P28074); test: Competitive inhibition of chymotrypsin-like activity of human 20S proteasome using Suc-Leu-Leu-Val-Tyr-AMC as substrate measured for 10 mins by fluorescence assay
T1 sequence (P28074 whole entry): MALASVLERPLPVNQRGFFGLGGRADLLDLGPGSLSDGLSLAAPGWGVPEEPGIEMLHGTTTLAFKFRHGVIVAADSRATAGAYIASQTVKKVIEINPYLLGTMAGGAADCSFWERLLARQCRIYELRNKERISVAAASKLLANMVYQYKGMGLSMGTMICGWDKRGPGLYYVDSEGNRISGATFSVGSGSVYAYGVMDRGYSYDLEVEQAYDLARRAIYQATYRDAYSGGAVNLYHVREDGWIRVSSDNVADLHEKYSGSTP

MM1R [4] = test: Inhibition of proteasome activity in human MM1R cells assessed as increase in total ubiquitin levels at 20 uM after 24 hrs by Western blot method; assay type: cell-based
[5] = target: T2, Proteasome Macropain subunit MB1 (Homo sapiens) (UniProt P28074); test: Inhibition of chymotrypsin-like activity of human 20S proteasome at 50 uM using Suc-Leu-Leu-Val-Tyr-AMC as substrate measured for 10 mins by fluorescence assay relative to control
T2 sequence (whole entry): T1 sequence (P28074 whole entry)

[6] = target: Proteasome Macropain subunit (Homo sapiens) (UniProt P49721); test: Inhibition of trypsin-like activity of human 20S proteasome at 50 uM using Boc-Leu-Arg-Arg-AMC as substrate measured for 10 mins by fluorescence assay relative to control
[7] = target: T3, Proteasome component C5 (Homo sapiens) (UniProt P20618); test: Inhibition of post-glutamyl peptide hydrolyzing activity of human 20S proteasome at 50 uM using Cbz-Leu-Leu-Glu-AMC as substrate measured for 10 mins by fluorescence assay relative to control
T3 sequence (whole entry): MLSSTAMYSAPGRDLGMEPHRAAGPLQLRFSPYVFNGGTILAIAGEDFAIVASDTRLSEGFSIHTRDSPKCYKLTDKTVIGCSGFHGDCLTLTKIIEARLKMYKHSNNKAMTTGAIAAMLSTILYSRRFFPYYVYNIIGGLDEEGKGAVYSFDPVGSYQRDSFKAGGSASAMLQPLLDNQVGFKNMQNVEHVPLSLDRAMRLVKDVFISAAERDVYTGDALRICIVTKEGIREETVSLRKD

[8] = target: T2, Proteasome Macropain subunit MB1 (Homo sapiens); test: Time-dependent inhibition of chymotrypsin-like activity of human 20S proteasome using Suc-Leu-Leu-Val-Tyr-AMC as substrate at 10 to 100 uM by fluorescence assay
MM1R [9] = test: Inhibition of proteasome activity in human MM1R cells assessed as increase in total ubiquitin levels at 10 uM after 24 hrs by Western blot method; assay type: cell-based

Proteasome Macropain subunit (Homo sapiens), sequence (P49721 whole entry): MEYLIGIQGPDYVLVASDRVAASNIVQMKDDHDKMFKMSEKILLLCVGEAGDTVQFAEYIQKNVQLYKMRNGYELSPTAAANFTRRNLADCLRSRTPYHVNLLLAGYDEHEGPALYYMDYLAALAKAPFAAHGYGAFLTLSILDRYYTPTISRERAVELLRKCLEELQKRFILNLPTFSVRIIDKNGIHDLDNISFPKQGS

Compound	inhibition [5] [%]	inhibition [6] [%]	also measured
CN/C(=N\CCSCc1ccc2ccccc2n1)NS(=O)(=O)c1ccccc1			IC50 [1]: 18.3 µM; Activity [2]: 4%; Ki [3]: 2.12 µM; increase in total ubiquitin levels (qualitative) (MM1R [4]): Active
CC(=O)NC(Cc1ccccc1)C(=O)Nc1ccc(C)cc1 (centres undefined)	43		
CC(=O)NC(Cc1ccccc1)C(=O)Nc1ccc(S(N)(=O)=O)cc1 (centres undefined)	34		
CC(C)(C)OC(=O)Cn1ncn(NC(=O)Cc2ccccc2)c1=O	49		
CC(C)(C)Oc1ccc(C[C@@H](NC(=O)OCC2c3ccccc3-c3ccccc32)C(=O)O)cc1	59		
CC(C)C[C@H](NC(=O)c1cnc2ccccc2n1)C(=O)O	34		
CC(C)[C@H](NC(=O)[C@H](Cc1ccc(O)cc1)NC(=O)OCc1ccccc1)C(=O)O	21		
CC(Cc1ccccc1)NC(=O)C(O)C(O)C(O)C(O)CCO (centres undefined)	36	6	
CC(NC(=O)OCc1ccccc1)C(=O)NC(Cc1ccc(O)cc1)C(=O)OCc1ccccc1 (centres undefined)	22		
CCOC(=O)C(NC(=O)Cc1ccccc1)C(=O)OCC	49		
CCOC(=O)c1ccc(NC(=O)CSc2nc3ccccc3o2)cc1	13		
CNC(Cc1ccc(OCc2ccccc2)cc1)C(=O)NC(CO)CC(C)C (centres undefined)	33		
COC(=O)C(CC(C)C)NC(=O)C(Cc1ccc(O)cc1)N(C(=O)OCc1ccccc1)C(=O)OCc1ccccc1 (centres undefined)	46		
C[C@H](NC(=O)OCc1ccccc1)C(=O)N[C@@H](Cc1ccccc1)C(N)=O	24		
NC(=O)C(NC(=O)c1ccccc1)SCc1ccccc1 (centres undefined)	21	3	
NC(=O)C[C@H](NC(=O)OCC1c2ccccc2-c2ccccc21)C(=O)O	33		
NC(CCC(=O)OCc1ccccc1)C(=O)OCc1ccccc1 (centres undefined)	34		
NC(Cc1c[nH]c2ccccc12)C(=O)OCc1ccccc1 (centres undefined)	54		
NS(=O)(=O)c1ccc(NC(=O)/C=C/c2ccccc2)cc1	33	11	
O=C(CC(=O)c1cccnc1)NC(=O)c1ccccc1	43		
O=C(CNC(=O)c1ccccc1)OC(C(=O)O)c1ccc(F)cc1 (centres undefined)	12		
O=C(NCc1ccccc1)C(O)C(O)C(O)C(O)CO (centres undefined)	15	2	
O=C(Nc1ccc2nc(O)cc(C(=O)O)c2c1)Oc1ccccc1	48	74	

Compound	inhibition [5] [%]	inhibition [6] [%]	also measured
O=C(Nc1ccccc1C(=O)NCC1CC1)c1cccs1	60		
O=C(O)CCCC(=O)NC1CC2c3ccccc3C1c1ccccc12 (centres undefined)	31	7	
O=C(O)[C@H](Cc1ccc(O)cc1)NS(=O)(=O)Cc1ccccc1	60		
O=C(O)c1ccc(NCn2c(=S)[nH]c3ccccc32)cc1O	54	1	
OCC(Oc1ccccc1)C(O)C(O)C(CO)Oc1ccccc1 (centres undefined)	5		
COC(=O)[C@H](C)NC(=O)[C@H](Cc1ccccc1)NC(=O)[C@H](C)NC(=O)OCc1ccccc1 (Cbz-Ala-Phe-Ala-OMe)	24		inhibition [7]: 24%
CC(O)C(C=O)NC(=O)CNC(=O)OCc1ccccc1 (stereo not drawn) (Cbz-Gly-[ξT]-aldehyde)	23		
COC(=O)[C@H](CO)NC(=O)[C@H](CC(C)C)NC(=O)[C@H](CC(C)C)NC(=O)OCc1ccccc1 (Cbz-Leu-Leu-Ser-OMe)			IC50 [1]: 16.2 µM; TDI [8]: Active; Activity [2]: 4%; Ki [3]: 0.42 µM; increase in total ubiquitin levels (qualitative) (MM1R [4]): Active
CC(C)C[C@H](NC(=O)OCc1ccccc1)C(=O)N[C@@H](Cc1ccc(O)cc1)C(N)=O (Cbz-Leu-Tyr-NH2)	17		
COC(=O)[C@H](C)NC(=O)[C@H](CC(C)C)NC(=O)[C@H](Cc1ccccc1)NC(=O)OCc1ccccc1 (Cbz-Phe-Leu-Ala-OMe)	22		
COC(=O)[C@H](Cc1ccccc1)NC(=O)[C@H](Cc1ccccc1)NC(=O)[C@H](Cc1ccccc1)NC(=O)OCc1ccccc1 (Cbz-Phe-Phe-Phe-OMe)		18	
CC(C)CC(NC(=O)C(CO)NC(=O)OCc1ccccc1)C(=O)NC(Cc1ccc(O)cc1)C(N)=O (stereo not drawn) (Cbz-Ser-Leu-Tyr-NH2; configuration not given here)		29	IC50 [1]: 28.5 µM; Activity [2]: 4%; Ki [3]: 2.18 µM; increase in total ubiquitin levels (qualitative) (MM1R [4]): Active
CC(C)C[C@H](NC(=O)[C@H](CO)NC(=O)OCc1ccccc1)C(=O)N[C@@H](Cc1ccc(O)cc1)C(=O)NN (Cbz-Ser-Leu-Tyr-NHNH2)		26	IC50 [1]: 29.8 µM; TDI [8]: Active; Activity [2]: 4%; Ki [3]: 11 µM; inhibition [7]: 23%
COC(=O)[C@H](Cc1ccc(O)cc1)NC(=O)[C@H](CC(C)C)NC(=O)[C@H](CO)NC(=O)OCc1ccccc1 (Cbz-Ser-Leu-Tyr-OMe)		22	IC50 [1]: 22.3 µM; TDI [8]: Active; Activity [2]: 4%; Ki [3]: 4.7 µM; increase in total ubiquitin levels (qualitative) (MM1R [4]): Active
COC(=O)[C@H](CC(C)C)NC(=O)[C@H](Cc1ccccc1)NC(=O)[C@H](CO)NC(=O)OCc1ccccc1 (Cbz-Ser-Phe-Leu-OMe)			IC50 [1]: 17.6 µM; TDI [8]: Active; Activity [2]: 4%; Ki [3]: 10.3 µM; increase in total ubiquitin levels (qualitative) (MM1R [4]): Active
CC(C)[C@H](NC(=O)[C@H](Cc1ccc(O)cc1)NC(=O)OCc1ccccc1)C(N)=O (Cbz-Tyr-Val-NH2)	11	23	
COC(=O)[C@H](CC(C)C)NC(=O)[C@H](CC(N)=O)NC(=O)[C@@H](NC(=O)OCc1ccccc1)C(C)C (Cbz-Val-Asn-Leu-OMe)	15	32	
CCC[C@H](NC(=O)OCc1ccccc1)C(=O)N[C@@H](Cc1ccc(O)cc1)C(N)=O (Cbz-[Nva]-Tyr-NH2)	18	33	
CCCC(NC(=O)OCc1ccccc1)C(=O)NC(Cc1ccc(O)cc1)C(N)=O (centres undefined) (Cbz-[Nva]-Tyr-NH2; configuration not given here)	17		
CCC(C)C(NC(=O)OCc1ccccc1)C(=O)N[C@@H](Cc1ccc(O)cc1)C(=O)O (some centres undefined) (Cbz-[ξI]-Tyr-OH)	34	11	
CC(C)CC(NC(=O)OCc1ccccc1)C(=O)N[C@@H](Cc1ccc(O)cc1)C(=O)O (some centres undefined) (Cbz-[ξL]-Tyr-OH)	8		
O=C(NC(Cc1ccc(O)cc1)C(=O)N[C@@H](Cc1ccccc1)C(=O)O)OCc1ccccc1 (some centres undefined) (Cbz-[ξY]-Phe-OH)	7		
CC(C)C[C@@H](C=O)NC(=O)[C@H](CC(C)C)NC(=O)[C@H](CC(C)C)NC(=O)OCc1ccccc1 [MG-132] (Cbz-Leu-Leu-Leu-aldehyde)			IC50 [1]: 12.3 µM; inhibition (MM1R [9]): Active
